What all share (assay type): cell-based
Common to all, as to settings: fluorescent calcium assay

The target in one assay is T1, TRPML2 (Homo sapiens, UniProt Q8IZK6).
T1 construct: expressed in transfected cells
T1 sequence (Q8IZK6 1-566): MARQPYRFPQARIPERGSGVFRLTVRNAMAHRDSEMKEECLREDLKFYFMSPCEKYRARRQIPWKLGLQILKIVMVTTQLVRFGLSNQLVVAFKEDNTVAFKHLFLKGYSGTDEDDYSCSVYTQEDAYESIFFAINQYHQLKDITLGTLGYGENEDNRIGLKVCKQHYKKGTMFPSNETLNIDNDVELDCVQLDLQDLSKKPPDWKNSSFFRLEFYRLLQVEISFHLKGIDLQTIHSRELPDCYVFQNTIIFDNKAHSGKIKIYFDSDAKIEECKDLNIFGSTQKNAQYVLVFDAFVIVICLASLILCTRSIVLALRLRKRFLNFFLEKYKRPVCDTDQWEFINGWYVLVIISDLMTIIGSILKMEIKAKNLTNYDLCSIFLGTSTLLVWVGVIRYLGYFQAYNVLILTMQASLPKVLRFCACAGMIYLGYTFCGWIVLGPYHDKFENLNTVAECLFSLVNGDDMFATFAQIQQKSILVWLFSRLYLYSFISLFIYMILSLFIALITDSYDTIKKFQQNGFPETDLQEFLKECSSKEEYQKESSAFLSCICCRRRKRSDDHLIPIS
Briefly: Fluorescent TRPML2 assay (performed as for TRPML1, substituting the TRPML2 subtype). The gist of the method: (§1)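 Agonist activity is scored as percent of plate controls from Fluo4 fluorescence after dye-loaded, doxycycline-induced HEK-293 Trex cells meet compound in high-calcium (10 mM) Ringer's. Compounds run in half-log dilutions from 20 micromolar final, in triplicate.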

The target in another assay is T2, TRPML3 (Homo sapiens, UniProt Q8TDD5).
T2 construct: expressed in transfected cells
T2 sequence (Q8TDD5 1-553): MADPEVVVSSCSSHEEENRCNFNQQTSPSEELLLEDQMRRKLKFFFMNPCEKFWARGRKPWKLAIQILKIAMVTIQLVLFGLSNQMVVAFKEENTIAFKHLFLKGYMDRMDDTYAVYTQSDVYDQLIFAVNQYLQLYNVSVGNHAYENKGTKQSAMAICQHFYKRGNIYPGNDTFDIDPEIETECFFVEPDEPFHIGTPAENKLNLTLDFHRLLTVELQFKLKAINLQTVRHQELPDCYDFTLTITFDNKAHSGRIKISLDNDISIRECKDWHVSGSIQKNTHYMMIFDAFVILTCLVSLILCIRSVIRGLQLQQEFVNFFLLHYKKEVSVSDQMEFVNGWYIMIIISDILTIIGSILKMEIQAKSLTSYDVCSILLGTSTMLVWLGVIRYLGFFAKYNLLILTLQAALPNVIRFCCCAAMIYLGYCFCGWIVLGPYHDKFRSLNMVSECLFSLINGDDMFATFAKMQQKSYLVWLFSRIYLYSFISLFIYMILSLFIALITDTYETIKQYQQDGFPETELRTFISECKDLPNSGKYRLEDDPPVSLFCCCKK
In words: Fluorescent TRPML3 assay (performed as for TRPML1, substituting the TRPML3 subtype). The gist of the method: as §1

Another assay addresses TRPML1 (Homo sapiens, UniProt Q9GZU1). Briefly: Fluorescent TRPML1 assay (Fluo4-AM calcium fluorescence in doxycycline-induced HEK-293 Trex cells). In outline:
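hTRPML1 (mutated for cell-surface expression) in HEK-293 Trex, dox 0.5 ug/mL o/n; Fluo4-AM 1 uM ~60 min, then ~60 min de-esterification, dark; modified Ringer's + 10 mM Ca. Cmpds 20 uM–6 nM final, half-log, n=3. Ex480/Em540; % activity vs ctrls; EC50 by nonlinear regression.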

Consider 17 compounds from patent publication US20250136606A1, “MODULATORS OF TRPML, THEIR COMPOSITIONS AND METHODS OF USE” (Caraway Therapeutics, Inc., priority 2021, published 2025).

Each structure is given as a SMILES string.

TRPML1, sequence (Q9GZU1 whole entry L15A/L16A/L577A/L578A, form open): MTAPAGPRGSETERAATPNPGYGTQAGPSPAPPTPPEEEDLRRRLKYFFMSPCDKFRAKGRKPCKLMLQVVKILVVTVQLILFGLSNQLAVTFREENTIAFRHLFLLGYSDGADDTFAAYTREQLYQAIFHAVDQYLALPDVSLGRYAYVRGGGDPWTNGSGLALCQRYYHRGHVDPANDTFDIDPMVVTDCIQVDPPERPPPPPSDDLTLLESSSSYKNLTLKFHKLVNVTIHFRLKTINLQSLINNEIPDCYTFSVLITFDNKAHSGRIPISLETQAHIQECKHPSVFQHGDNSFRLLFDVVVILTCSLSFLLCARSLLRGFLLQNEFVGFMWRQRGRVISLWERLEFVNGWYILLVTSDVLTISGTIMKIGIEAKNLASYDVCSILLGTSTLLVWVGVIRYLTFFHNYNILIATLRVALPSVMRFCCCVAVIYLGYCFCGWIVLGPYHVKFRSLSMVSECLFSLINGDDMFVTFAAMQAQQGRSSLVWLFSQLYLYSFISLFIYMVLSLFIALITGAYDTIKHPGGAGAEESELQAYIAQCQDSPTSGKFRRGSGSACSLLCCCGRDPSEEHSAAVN

In general, EC50 refers to the midpoint of the concentration-response curve. Consider `C[C@H]1CN(C(=O)OC(C)(C)C)CCN1c1ncnc2c1c(N1CCCC1)cn2-c1cc(F)cc(F)c1` [Compound 253, tert-butyl (S)-4-(7-(3,5-difluorophenyl)-5-(pyrrolidin-1-yl)-7H-pyrrolo[2,3-d]pyrimidin-4-yl)-3-methylpiperazine-1-carboxylate], for which the 50% effective concentration (EC50) on TRPML2 was 100 to 500 nM; on TRPML3, under 100 nM; at TRPML1, under 100 nM.

`C[C@@H]1CN(c2ncnc3c2c(-c2ccccc2F)cn3-c2cnn(C)c2)[C@@H](C)CN1C(=O)OCC(F)(F)F` [Compound 254, 2,2,2-trifluoroethyl (2R,5S)-4-(5-(2-fluorophenyl)-7-(1-methyl-1H-pyrazol-4-yl)-7H-pyrrolo[2,3-d]pyrimidin-4-yl)-2,5-dimethylpiperazine-1-carboxylate]: the EC50 at TRPML2 is over 2000 nM; at TRPML3, 100 to 500 nM; on TRPML1, 100 to 500 nM.

Regarding `C[C@@H]1CN(C(=O)OC(C)(C)C)CCN1c1ncnc2c1c(N1CCCC1)cn2-c1cc(F)cc(F)c1` [Compound 255, tert-butyl (R)-4-(7-(3,5-difluorophenyl)-5-(pyrrolidin-1-yl)-7H-pyrrolo[2,3-d]pyrimidin-4-yl)-3-methylpiperazine-1-carboxylate], the concentration for a half-maximal effect (EC50) was 500 to 2000 nM on TRPML2, 100 to 500 nM at TRPML3 and 100 to 500 nM at TRPML1.

With `CC[C@@H]1CN(c2ncnc3c2c(C2CC2)cn3-c2cc(F)cc(F)c2)CCN1C(=O)OC(C)(C)C` [Compound 256, tert-butyl (R)-4-(5-cyclopropyl-7-(3,5-difluorophenyl)-7H-pyrrolo[2,3-d]pyrimidin-4-yl)-2-ethylpiperazine-1-carboxylate], the concentration giving a half-maximal response (EC50) is 500 to 2000 nM at TRPML2, under 100 nM on TRPML3 and under 100 nM on TRPML1.

Consider `CC[C@H]1CN(c2ncnc3c2c(C2CC2)cn3-c2cc(F)cc(F)c2)CCN1C(=O)OC(C)(C)C` [Compound 257, tert-Butyl (S)-4-(5-cyclopropyl-7-(3,5-difluorophenyl)-7H-pyrrolo[2,3-d]pyrimidin-4-yl)-2-ethylpiperazine-1-carboxylate], for which the EC50 on TRPML2 fell in the range of 500 to 2000 nM; on TRPML3, 100 to 500 nM; on TRPML1, 100 to 500 nM.

Regarding `CC(C)(C)OC(=O)N1CCN(c2ncnc3c2c(C2CC2)cn3-c2cc(F)cc(F)c2)CC12CC2` [Compound 258, tert-Butyl 7-(5-cyclopropyl-7-(3,5-difluorophenyl)-7H-pyrrolo[2,3-d]pyrimidin-4-yl)-4,7-diazaspiro[2.5]octane-4-carboxylate], the half-maximal effective concentration (EC50) on TRPML2 was 500 to 2000 nM; at TRPML3, under 100 nM; on TRPML1, under 100 nM.

In the case of `C[C@H]1CN(C(=O)OC(C)(C)C)CCN1c1ncnc2c1c(C1CC1)cn2-c1cncc(C#N)c1` [Compound 259], the EC50 lay within 500 to 2000 nM on TRPML2, 100 to 500 nM at TRPML3 and 100 to 500 nM at TRPML1.

Regarding `C[C@H]1CN(C(=O)OC(C)(C)C)CCN1c1ncnc2c1c(C1CC1)cn2-c1cc(C#N)ccn1` [Compound 260], the concentration for a half-maximal effect (EC50) at TRPML2, at TRPML3 and on TRPML1 was under 100 nM in each case.

On to `C[C@H]1CN(C(=O)OC(C)(C)C)CCN1c1ncnc2c1c(C1CCOCC1)nn2-c1ccccc1` [Compound 261, tert-butyl (S)-3-methyl-4-(1-phenyl-3-(tetrahydro-2H-pyran-4-yl)-1H-pyrazolo[3,4-d]pyrimidin-4-yl)piperazine-1-carboxylate], for which the EC50 on TRPML2 is over 2000 nM; on TRPML3 it was 500 to 2000 nM; on TRPML1, 500 to 2000 nM.

Consider `C[C@@H]1CN(c2ncnc3c2c(N2CCC[C@@H]2C)cn3-c2cccc(Cl)c2)CCN1C(=O)OC(C)(C)C` [Compound 262, tert-butyl (R)-4-(7-(3-chlorophenyl)-5-((S)-2-methylpyrrolidin-1-yl)-7H-pyrrolo[2,3-d]pyrimidin-4-yl)-2-methylpiperazine-1-carboxylate], for which the EC50 at TRPML2 was 500 to 2000 nM; at TRPML3, 100 to 500 nM; at TRPML1, under 100 nM.

Take `COc1cccc(-n2cc(C3CC3)c3c(N4CCN(C(=O)OC(C)(C)C(F)(F)F)C[C@@H]4C)ncnc32)c1` [Compound 263, 1,1,1-trifluoro-2-methylpropan-2-yl (S)-4-(5-cyclopropyl-7-(3-methoxyphenyl)-7H-pyrrolo[2,3-d]pyrimidin-4-yl)-3-methylpiperazine-1-carboxylate]: the EC50 on TRPML2 fell in the range of 500 to 2000 nM; at TRPML3, 100 to 500 nM; on TRPML1, 100 to 500 nM.

Turning to `COc1cc(OC(F)(F)F)cc(-n2cc(C3CC3)c3c(N4CCN(C(=O)OC(C)(C)C)C[C@@H]4C)ncnc32)c1` [Compound 264, tert-butyl (S)-4-(5-cyclopropyl-7-(3-methoxy-5-(trifluoromethoxy)phenyl)-7H-pyrrolo[2,3-d]pyrimidin-4-yl)-3-methylpiperazine-1-carboxylate], the EC50 at TRPML2 fell in the range of 500 to 2000 nM; at TRPML3, 100 to 500 nM; on TRPML1, 100 to 500 nM.

Turning to `C[C@H]1CN(C(=O)OC(C)(C)C(F)(F)F)CCN1c1ncnc2c1c(C1CC1)cn2-c1cccc(OC(F)(F)F)c1` [Compound 265, 1,1,1-trifluoro-2-methylpropan-2-yl (S)-4-(5-cyclopropyl-7-(3-(trifluoromethoxy)phenyl)-7H-pyrrolo[2,3-d]pyrimidin-4-yl)-3-methylpiperazine-1-carboxylate], the concentration for a half-maximal effect (EC50) at TRPML2 was 100 to 500 nM; on TRPML3, under 100 nM; at TRPML1 it was under 100 nM.

For `C[C@H]1CN(C(=O)OC(C)(C)C(F)(F)F)CCN1c1ncnc2c1c(C1CC1)cn2-c1cccc(C#N)c1` [Compound 266, 1,1,1-trifluoro-2-methylpropan-2-yl (S)-4-(7-(3-cyanophenyl)-5-cyclopropyl-7H-pyrrolo[2,3-d]pyrimidin-4-yl)-3-methylpiperazine-1-carboxylate], the EC50 is 500 to 2000 nM on TRPML2, under 100 nM on TRPML3 and under 100 nM on TRPML1.

With `C[C@H]1CN(C(=O)OC(C)(C)C)CCN1c1ncnc2c1c(-c1nccnc1F)cn2-c1cccc(Cl)c1` [Compound 267, tert-butyl (S)-4-(7-(3-chlorophenyl)-5-(3-fluoropyrazin-2-yl)-7H-pyrrolo[2,3-d]pyrimidin-4-yl)-3-methylpiperazine-1-carboxylate], the 50% effective concentration (EC50) on TRPML2 was 100 to 500 nM; on TRPML3 it was under 100 nM; on TRPML1 it was 100 to 500 nM.

With `C[C@H]1CN(C(=O)OC(C)(C)C)CCN1c1ncnc2c1c(-c1ccccc1F)cn2-c1cc(C#N)ccn1` [Compound 268, tert-butyl (S)-4-(7-(4-cyanopyridin-2-yl)-5-(2-fluorophenyl)-7H-pyrrolo[2,3-d]pyrimidin-4-yl)-3-methylpiperazine-1-carboxylate], the concentration giving a half-maximal response (EC50) on TRPML2, at TRPML3 and on TRPML1 was under 100 nM each time.

In the case of `CCc1nccnc1-c1cn(-c2cccc(Cl)c2)c2ncnc(N3CCN(C(=O)OC(C)(C)C)C[C@@H]3C)c12` [Compound 271, tert-butyl (S)-4-(7-(3-chlorophenyl)-5-(3-ethylpyrazin-2-yl)-7H-pyrrolo[2,3-d]pyrimidin-4-yl)-3-methylpiperazine-1-carboxylate], the concentration giving a half-maximal response (EC50) on TRPML2, at TRPML3 and at TRPML1 was 100 to 500 nM in each case.
